Measurements published in patent US20140113869A1, “Gbetagamma BINDING SITE ON THE PIK3CB GENE PRODUCT AND METHODS OF USE” (Albert Einstein College of Medicine of Yeshiva University, priority 2011, published 2014).
Ends that are not written are not given here. * marks the point of attachment. Myristoyl = CCCCCCCCCCCCCC(=O)*

Assays:
[1] = test system: p85/p110β dimers activated by Gβγ; assay: In vitro activation of p85/p110β dimers by Gβγ (lipid kinase activity); type: biochemical; conditions: peptide 5-fold in excess of Gβγ; FIG. 5
Method: FIG. 5. Percent stimulation of p85/p110β dimers incubated without or with Gβγ in the absence or presence of 5-1Old excess peptide. Pep=p110β peptide. Scram=scrambled peptide control.
(§1) FIG. 9A-9D. Peptide inhibitors of Gβγ -mediated p110β/p85 activation are specific for p85/p110β. (9A) Myristoylated p110β peptides or SIGK peptide were preincubated with biotinylated Gβγ or 5 min, followed by addition of phage particles displaying the SIGK peptide, After a 1 h incubation at room temperature, Anti-M-13 phase monoclonal antibody was added followed by addition of Streptavidin coated Alphascreen donor beads and protein A coated Alphascreen acceptor beads. After a 2 h incubation, the Alphascreen signal was read on a Perkin Elmer Envision Multilabel Plate reader. […] Bound proteins were analyzed by western blot. […] The cells were fixed and the number of GFP punctae per cell was counted using a Nikon Eclipse 400 microscope with 60× 1.4 N.A. optics. […]

[2] = test system: Gβγ activation of Akt (pT308-Akt) in NIH3T3 cells; assay: pT308-Akt blotting in NIH3T3 cells transfected with Gβγ; type: cell-based; conditions: for Gβγ activation of Akt (pT308-Akt): myristoylated vs TAT-tagged vs unmodified peptide, FIG. 6B
Method: FIG. 6A-6B. (6A) NIH3T3 cells were transfected without or with Gβγ and incubated with scrambled (control) or p110β peptide. pT308-Akt was measured by blotting. (6B) Cell transfected as above were incubated with myristoylated peptide, TAT-tagged peptide, or unmodified peptide. pT308-Akt was measured by blotting.
(§2) To test the possibility that small molecules targeting the p110β-Gβγ interface could be used as therapeutics, a peptide was designed derived from the Gβγ-binding loop in p110β. having the sequence […] (SEQ ID NO:6) a scrambled version of the peptide serves as a negative control. […] The test whether the peptide could be efficacious in vivo, we created a cell permeable myristylated version of the peptide. The peptide blocked activation of Akt in cells transfected with Gβγ (FIG. 6A); the peptide's inhibitory activity required its entry into the cells, since both myristoylated and TAT-tagged peptide inhibited Gβγ activation of Akt, whereas unlabeled peptide had no effect (FIG. 6B). The myristoylated peptide blocked the formation of colonies in soft agar (FIG. 7A) and the formation of foci (FIG. 7B), both measures of transformation, in NIH3T3 cells transfected with p85/p110β.

[3] = test system: recombinant adenylyl cyclase; assay: Synergistic activation of adenylyl cyclase by Gβγ and Gαs in Sf9 cell membranes; type: biochemical; conditions: 30 μM peptide; 20 nM Gsα, 20 nM Gβγ; FIG. 9D
[4] = test system: Class IB PI3K p101/p110γ; assay: Gβγ-dependent activation of p101/p110γ, pT308-Akt western blot in HEK293E cells; type: cell-based; conditions: FIG. 9C
Method: as §1

[5] = target: T1, p110β binding to Rab5 (Homo sapiens, UniProt P42338); assay: p110β binding to immobilized GST-Rab5 (pull-down from HEK293T lysates); conditions: FIG. 9E
T1 construct: expressed in transfected cells; host or cells: HEK293T (p85α and p110β)
T1 sequence (P42338 whole entry): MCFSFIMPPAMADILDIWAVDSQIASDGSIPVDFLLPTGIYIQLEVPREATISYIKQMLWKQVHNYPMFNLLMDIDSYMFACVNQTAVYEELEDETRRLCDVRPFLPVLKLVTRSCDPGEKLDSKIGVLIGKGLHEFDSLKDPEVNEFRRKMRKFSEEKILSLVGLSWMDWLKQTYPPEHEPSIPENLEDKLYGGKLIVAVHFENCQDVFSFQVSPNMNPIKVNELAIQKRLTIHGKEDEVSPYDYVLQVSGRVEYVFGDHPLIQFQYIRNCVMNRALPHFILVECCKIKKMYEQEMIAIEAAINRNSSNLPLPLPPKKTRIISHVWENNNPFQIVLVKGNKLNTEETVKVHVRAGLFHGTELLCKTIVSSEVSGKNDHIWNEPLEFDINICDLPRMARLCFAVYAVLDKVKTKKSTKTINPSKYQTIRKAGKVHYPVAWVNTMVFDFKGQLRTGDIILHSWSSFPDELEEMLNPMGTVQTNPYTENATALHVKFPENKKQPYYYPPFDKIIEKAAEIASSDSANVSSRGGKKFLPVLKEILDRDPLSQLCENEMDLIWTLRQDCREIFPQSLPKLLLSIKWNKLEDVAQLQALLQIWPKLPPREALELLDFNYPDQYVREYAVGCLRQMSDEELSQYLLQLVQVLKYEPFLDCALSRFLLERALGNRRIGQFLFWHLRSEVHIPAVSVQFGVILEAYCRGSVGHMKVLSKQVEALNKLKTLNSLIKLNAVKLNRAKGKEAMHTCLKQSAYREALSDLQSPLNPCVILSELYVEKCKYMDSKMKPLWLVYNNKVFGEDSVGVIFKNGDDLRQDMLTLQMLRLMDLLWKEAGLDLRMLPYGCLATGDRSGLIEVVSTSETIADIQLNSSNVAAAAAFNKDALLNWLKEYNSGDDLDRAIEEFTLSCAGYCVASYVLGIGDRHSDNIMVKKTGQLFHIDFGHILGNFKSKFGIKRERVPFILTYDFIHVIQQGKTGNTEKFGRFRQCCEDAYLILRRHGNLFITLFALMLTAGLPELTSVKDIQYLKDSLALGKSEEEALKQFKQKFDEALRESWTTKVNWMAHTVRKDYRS
Method: as §1

[6] = test system: PC3 prostate cancer cells; assay: PC-3 cell proliferation, MTS assay; type: cell-based; conditions: 30 μM peptide; FIG. 10A
Method: (§3) FIG. 10A-10C. Inhibition of prostate cancer cell proliferation and chemotaxis: (A) Proliferation of PC-3 cells was measured by the MTS assay in the absence or presence of 30 μM myristoylated p110β-derived peptide or scrambled peptide. (B) Proliferation assays were performed on two PTEN-null endometrial cancer cell lines (AN3CA and RL95-2) and one PTEN positive endometrial cell line (KLE) grown in the absence or presence of myristoylated p110β-derived peptide or scrambled peptide. (C) PC-3 cells chemotaxis toward 10% […] in the absence or presence of 20 μM p110β-derived peptide or scrambled peptide was measured in Boyden chambers.
(§4) Finally, the peptide was evaluated for effects on the growth of PC3 prostate cancer cells, which are known to require p110β for growth. […] Importantly, published studies have shown that kinase-dead p110β can rescue cell growth in cell lines where proliferation is inhibited by p110β knockout. Since currently available p110β inhibitors target the active site of p110β and act by inhibiting its kinase activity, they would not be expected to suppress the growth of cells that depend on p110β for growth. In contrast, the p110β peptide described here inhibits p110β by a distinct mechanism, and is likely to be more efficacious at suppressing the growth of p110β-dependent prostate cancer cells than active site inhibitors.

[7] = test system: NIH3T3 cells transfected with p85/p110β; assay: Colony formation in soft agar; type: cell-based; conditions: 30 μM peptide; FIG. 7A
Method: (§5) FIG. 7A-7B. (7A). NIH3T3 cells were transfected without or with p85/p110β and incubated without or with 30 μM p110β peptide or scrambled control peptide. Colony formation in soft agar by cells transfected and treated with peptide as above. (7B). Foci were measured after 2 weeks.
as §2

[8] = test system: NIH3T3 cells transfected with p110β/p85; assay: Wound healing (wound closure) migration assay; type: cell-based; conditions: 30 μM peptide; wound closure after 24h; FIG. 8
Method: FIG. 8. NIH3T3 cells were transfected without or with p85/p110β. Confluent monolayers were scratched with a pipette tip, and wound closure after 24h was measured in the absence or presence of 30 μM p110β peptide or scrambled control peptide
as §2

[9] = test system: Gβγ; assay: Alphascreen competition with phage-displayed SIGK peptide for binding to biotinylated Gβγ; conditions: FIG. 9A
Method: as §1

[10] = test system: p110β; assay: p110β expression in peptide-treated transfected cells; type: cell-based; conditions: FIG. 7
Method: as §5

[11] = test system: HEK293A cells expressing GFP-LC3; assay: p110β-dependent induction of autophagy, GFP-LC3 punctae in HEK293A cells; type: cell-based; conditions: PBS containing 100 nM rapamycin, 2 h; FIG. 9F
Method: as §1

[12] = test system: NIH3T3 cells transfected with p85/p110β; assay: Foci formation; type: cell-based; conditions: 30 μM peptide; foci measured after 2 weeks; FIG. 7B
Method: as §5, §2

[13] = test system: PC3 cells; assay: PC-3 chemotaxis in Boyden chambers; type: cell-based; conditions: 20 μM peptide; toward 10% PBS; FIG. 10C
Method: as §3, §4

## KAAEIASSDSANVSSRGGKKFLPV (SEQ ID NO:6) [peptide]
[1]
  activation of p110β by Gβγ: markedly reduces
[2]
  Gβγ activation of Akt (pT308-Akt): no effect

## myristoylated peptide: cell permeable myristylated version of the p110β peptide KAAEIASSDSANVSSRGGKKFLPV (SEQ ID NO:6) (Myristoyl-KAAEIASSDSANVSSRGGKKFLPV)
[3]
  synergistic activation of adenylyl cyclase by Gβγ and Gαs: no effect
[4]
  Gβγ-dependent activation of the Class IB PI3K p101/p110γ: no effect
[5]
  p110β binding to Rab5: no effect
[6]
  PC3 cells number (growth): caused a decrease
[2]; NIH3T3 cells, FIG. 6A
  activation of Akt in cells transfected with Gβγ (pT308-Akt): blocked
[2]
  Gβγ activation of Akt (pT308-Akt): inhibited
[7]
  formation of colonies in soft agar: blocked
[8]
  enhanced migration in a wound healing assay: blocked
[9]
  competition with the binding to Gβγ of SIGK peptide: did not compete
[10]
  p110β expression: did not reduce
[11]
  p110β-dependent induction of autophagy: no effect
[12]
  formation of foci: blocked
[13]
  PC3 cells chemotaxis toward serum: inhibited
